pIC50: −log10 of the molar value. Where a name gives a salt, the structure may show the parent alone.

For twelve compounds, IC50 results are on record in US10138230B2, “Autotaxin inhibitors” (CANCER RESEARCH TECHNOLOGY LIMITED, priority 2015, dated 2018).

This assay deals with human recombinant ATX (Homo sapiens (Human), UniProt Q13822). Kind of assay: Autotaxin (ATX) activity Quanta Red assay. Format: biochemical. Conditions: 15 μM Rac-1-Palmitoyl-glycero-3-phosphocholine, 2 hours room temperature, determined in duplicate. The procedure, abridged: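 Choline released from 15 μM LPC substrate by 0.8 μg/mL recombinant human ATX (pH 8.0 Tris, CaCl2, 4% DMSO, 2 h, RT) was detected by coupled Quanta Red fluorescence.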
The term pIC50 denotes the IC50 on a negative log10 scale, so that one unit is a factor of ten. `COc1ccc(CCc2cc(NC(=O)C3CC(=O)N(c4ccc(CN5CCOCC5)cc4)C3)on2)cc1` (stereo not drawn) [Compound F199, N-[3-[2-(4-methoxyphenyl)ethyl]isoxazol-5-yl]-1-[4-(morpholinomethyl)phenyl]-5-oxo-pyrrolidine-3-carboxamide]: the pIC50 was 6.53.

In the case of `O=C(Nc1cc(CCc2ccccc2)no1)C1CC(=O)N(c2ccc(CN3CCOCC3)cc2)C1` (stereo not drawn) [Compound F200, 1-[4-(morpholinomethyl)phenyl]-5-oxo-N-[3-(2-phenylethyl)isoxazol-5-yl]pyrrolidine-3-carboxamide], the negative logarithm of the IC50 (pIC50) was 6.12.

For `O=C(Nc1cnc(CCc2ccccc2)s1)C1CC(=O)N(c2ccc(CN3CCOCC3)cc2)C1` (stereo not drawn) [Compound F201, 1-[4-(morpholinomethyl)phenyl]-5-oxo-N-[2-(2-phenylethyl)thiazol-5-yl]pyrrolidine-3-carboxamide], the negative-log IC50 (pIC50) is 5.97.

Consider `NCc1ccc(N2CC(C(=O)Nc3nnc(CCc4ccc(Cl)cc4)s3)CC2=O)cc1` (stereo not drawn) [Compound F203, 1-(4-aminomethyl-phenyl)-5-oxo-pyrrolidine-3-carboxylic acid {5-[2-(4-chloro-phenyl)-ethyl]-[1,3,4]thiadiazol-2-yl}-amide], for which the pIC50 is 6.41.

Regarding `O=C(NC1CC(=O)N(c2ccc(CN3CCCCC3)cc2)C1)c1cc(CCc2ccccc2)[nH]n1` (stereo not drawn) [Compound F204, 5-phenethyl-1H-pyrazole-3-carboxylic acid [5-oxo-1-(4-piperidin-1-ylmethyl-phenyl)-pyrrolidin-3-yl]-amide hydrochloride], the pIC50 was 5.97.

`O=C(NC1CC(=O)N(c2ccc(CN3CCCCC3)cc2)C1)c1ccc(CCc2ccccc2)nn1` (stereo not drawn) [Compound F205, N-[5-oxo-1-[4-(1-piperidylmethyl)phenyl]pyrrolidin-3-yl]-6-(2-phenylethyl)pyridazine-3-carboxamide]: the pIC50 is 5.15.

`O=C(NC1CC(=O)N(c2ccc(CN3CCCCC3)cc2)C1)c1cnc(CCc2ccccc2)s1` (stereo not drawn) [Compound F206, N-[5-oxo-1-[4-(1-piperidylmethyl)phenyl]pyrrolidin-3-yl]-2-(2-phenylethyl)thiazole-5-carboxamide]: the negative logarithm of the IC50 (pIC50) is 5.03.

Take `COc1ccc(CCc2nnc(NC(=O)C3CC(=O)N(c4ccc(CN5CCOCC5)cc4)C3)o2)cc1` (stereo not drawn) [Compound F207, N-[5-[2-(4-methoxyphenyl)ethyl]-1,3,4-oxadiazol-2-yl]-1-[4-(morpholinomethyl)phenyl]-5-oxo-pyrrolidine-3-carboxamide]: the pIC50 is 5.61.

In the case of `CCN(C)Cc1ccc(N2CC(C(=O)Nc3nnc(CCc4ccc(Cl)cc4)s3)CC2=O)cc1` (stereo not drawn) [Compound F211, 1-{4-[(Ethyl-methyl-amino)-methyl]-phenyl}-5-oxo-pyrrolidine-3-carboxylic acid {5-[2-(4-chloro-phenyl)-ethyl]-[1,3,4]thiadiazol-2-yl}-amide], the pIC50 was 8.05.

Take `O=C(Nc1nnc(CCc2ccc(Cl)cc2)s1)[C@H]1CC(=O)N(c2ccc(CN3CCC4(COC4)C3)cc2)C1` [Compound F212, (3S)-N-[5-[2-(4-chlorophenyl)ethyl]-1,3,4-thiadiazol-2-yl]-1-[4-(2-oxa-7-azaspiro[3.4]octan-7-ylmethyl)phenyl]-5-oxo-pyrrolidine-3-carboxamide]: the pIC50 is 9.00.

Consider `O=C(Nc1nnc(CCc2ccc(Cl)cc2)s1)[C@H]1CC(=O)N(c2ccc(CN3CC4(COC4)C3)cc2)C1` [Compound F213, (3S)-N-[5-[2-(4-chlorophenyl)ethyl]-1,3,4-thiadiazol-2-yl]-1-[4-(2-oxa-6-azaspiro[3.3]heptan-6-ylmethyl)phenyl]-5-oxo-pyrrolidine-3-carboxamide], for which the pIC50 was 9.00.

With `CS(=O)(=O)NCc1ccc(N2C[C@H](NC(=O)c3nnc(CCc4ccc(Cl)cc4)s3)CC2=O)cc1` [Compound F214, 5-[2-(4-chlorophenyl)ethyl]-N-[(3R)-1-[4-(methanesulfonamido-methyl)phenyl]-5-oxo-pyrrolidin-3-yl]-1,3,4-thiadiazole-2-carboxamide], the pIC50 is 6.87.
